# Values of other authors in patent publication US20090252711A1, “Stem Cells And Methods Of Making And Using Stem Cells” (priority 2006, published 2009).
# Key:
# [1] = tested on: cultured ASCs; settings: Cho et al. 2005
# [2] = tested on: neural stem cells; settings: Marin-Husstege et al. 2002
# [3] = tested on: lung fibroblast cells; settings: Mukhopadhyay et al. 2005
# [4] = tested on: hTERT; settings: normal human cells; Hou et al.
Compound,differentiation towards the osteogenic (bone) lineage [1],differentiation of neural stem cells towards the astrocyte cell type [2],differentiation of neural stem cells towards the oligodendrocyte cell type [2],telomerase activity [3],expression of the gene hTERT [4]
CCCC(CCC)C(=O)O [Valproic acid],enhanced differentiation,–,–,–,–
CC(/C=C/C(=O)NO)=C\[C@@H](C)C(=O)c1ccc(N(C)C)cc1 [trichostatin A],enhanced differentiation,not towards the astrocyte cell type,blocked,induced,upregulation
